Results from article PMC6389962 (Nature Communications, 2019).
Like-named read-outs stand apart in the source and are kept apart here. Starred links: 1 amine or outer side, 2 acyl side, 3 side chain; linkers in the order of their positions; H or OH if unused. Positions of bridges follow the written chain, without caps; N, C: chain ends. Residues, ends and D or L forms follow the SMILES beside them. Chains are numbered I, II in the order given. X2 = C[C@@H](CNC(=O)N[C@@H](C)CNC(=O)N[C@@H](C)CNC(=O)N[C@@H](C)CNC(=O)[*:2])NC(=O)NC[C@H](CCC(=O)O)NC(=O)NC[C@H](Cc1ccc(O)cc1)N[*:1]; X1 = C[C@@H](CNC(=O)N[C@@H](C)CNC(=O)[*:2])NC(=O)NC[C@H](C)N[*:1]

Legend:
normal mice (C57BL/6J) = assay: Blood glucose study in normal fed mice; format: in vivo, mouse; design: key to In vivo activity (indicator): + active; +++: + + + more active; conditions: for In vivo activity (indicator): mice, 50 nmol kg−1 i.v.; for time after dosing for which the blood glucose decrease is preserved / effect on blood glucose concentration: normal fed C57BL/6J mice, n = 3, 5 μg per mouse (50 nmol kg−1) i.v.; for effect on blood glucose concentration: monitored 6 h
Experimental: In the first study, we evaluated the effect of the analogues on the blood glucose concentration of normal mice (Fig. 3). The fed mice were treated with the analogues and their blood glucose concentration was monitored before and after dosing for 6 h. […] Indeed, a decrease of blood glucose concentration is observed after 30 min and the effect is preserved for 4 h after dosing.
Fig. 3 Blood glucose study in mice. a–c Blood glucose concentration in normal mice (C57BL/6J, male, 20–25 g, n = 3) before and after dosing: 5 μg per mouse (50 nmol kg^−1) i.v. Formulation: 20 μg mL^−1 in PBS 1×. The dosing was done at T0. Data are mean ± SEM. […] Source data are provided as a Source Data file
After the acclimation period (at least 5 days), mice (male C57BL/6J mice (Charles River laboratories) 8 weeks old, 20–25 g) were randomized into 10 groups (n = 3 per group) according to their body weight. They were acutely treated via i.v. route at 10 am (5 µg per mouse). Blood glucose was measured before dosing and at 30 min, 1, 2, 4, 6 h after dosing in fed conditions.

[1] = test system: fasted normal mice (C57BL/6J); assay: Intraperitoneal glucose tolerance test (IPGTT) in fasted normal mice; format: in vivo, mouse; conditions: for AUC: IPGTT 5 min (Fig 4a), blood glucose AUC 0-120 min
Experimental: In a second study, an IPGTT was performed 30 min after i.v. injections of 1, 14 and the vehicle (Fig. 4b). […] A further IPGTT study was done with a glucose challenge after 2 h of the dosing to investigate the prolonged activity of hybrids 14, 22 and 23 (Fig. 4c).
Fig. 4 IPGTT studies in mice. a–d Intraperitoneal glucose tolerance test (IPGTT) at different time after dosing in fasted normal mice (C57BL/6J, male, 20–25 g). Dosage: 200 μg kg^−1 (50 nmol kg^−1) i.v. Formulation: 20 μg mL^−1 in PBS 1×. IPGTT: glucose 2 g kg^−1 i.p. at T0. a IPGTT after 5 min (n = 4). b IPGTT after 30 min (n = 6). c IPGTT after 2 h (n = 6). d IPGTT after 4 h (n = 3). Area under the curve (AUC) of the corresponding IPGTT curve. Data are mean ± SEM. […] Source data are provided as a Source Data file
After the acclimation period (at least 5 days), mice (male C57BL/6J mice (Charles River laboratories) 6 weeks old, 20–25 g) were randomized into groups according to their body weight. The mice were fasted for 6 h prior being acutely treated via i.v. route (5 µg per mouse i.v. (200 μg kg^−1, 50 nmol kg^−1)) formulated at 20 µg mL^−1 in PBS 1×. The IPGTTs were performed (glucose 2 g kg^−1 i.p.) 5 min, 30 min, 2 h or 4 h after dosing and blood glucose was measured at different time points after the glucose challenge.

mouse GLP-1 receptor [2] = target: T1, mouse GLP-1 receptor (Mus musculus, UniProt O35659); assay: cell-based
T1 sequence (O35659 22-463): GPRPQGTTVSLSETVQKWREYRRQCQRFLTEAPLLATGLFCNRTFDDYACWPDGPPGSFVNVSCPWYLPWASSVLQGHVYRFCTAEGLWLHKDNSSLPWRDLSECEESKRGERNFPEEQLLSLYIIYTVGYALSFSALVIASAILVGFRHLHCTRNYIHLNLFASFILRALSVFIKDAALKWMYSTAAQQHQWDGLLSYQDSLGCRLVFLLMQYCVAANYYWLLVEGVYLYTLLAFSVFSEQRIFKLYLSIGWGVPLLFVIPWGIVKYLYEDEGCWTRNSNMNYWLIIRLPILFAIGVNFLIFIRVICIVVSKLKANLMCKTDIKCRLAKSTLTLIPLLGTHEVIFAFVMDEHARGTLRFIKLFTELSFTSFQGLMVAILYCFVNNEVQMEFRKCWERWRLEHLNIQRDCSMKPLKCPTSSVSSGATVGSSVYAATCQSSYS

mouse GLP-1 receptor [3] = target: T1, mouse GLP-1 receptor; conditions: for Potency (%), percentage of potency compare to GLP-1-G^2: cAMP production, from EC50
in vitro = conditions: mouse, plasma; for remaining at 1 h, 5 µM / remaining at 20 min, 5 µM: pH 7.4, % remaining analogue
Experimental: The oligomer was then diluted 1/50 with a solution of plasma/PBS pH 7.4 (1:1) to afford a final concentration of 5 µM and incubated at 37 °C (4 µL of the stock solution was diluted with 196 µL of plasma/PBS, pH 7.4, 1:1). Each compound was also incubated in the absence of plasma (196 µL of H2O/PBS, pH 7.4, 1:1). At the indicated time (20 min and 60 min) an aliquot of 70 µL was removed from each experimental reaction and pipetting into 175 µL of acetonitrile at 0 °C to quench the reaction (t = 0 min was determined using the reaction without plasma). The samples were frozen at –80 °C before analysis. The frozen samples were defrosted, stirred with a vortex 5 min and finally centrifuged 5 min at 16 °C (1500 × g). The supernatant was analysed by LC-MS. The time course of oligomer degradation was determined by integrating the area of the peak in the extracted ion chromatogram.
Supplementar y Figur e 2 : Mouse plasma degradation assay. […] Data are
mean ± SEM, n = 4. Source data are provided as a Source Data file (T able 2 tab).
Supplementar y Figur e 3.
Data are mean ± SEM, n = 3.
Source data are provided as a Source Data file […]

[4] = NEP 24.11 degradation assay; conditions: NEP 24.11 (isolated enzyme), pH 8, % remaining analogue, NEP 24.11 20 μg mL−1, […], pH 8.0, 20 °C, HPLC; time 6 h; replicate 1
Experimental: Stock solutions of the oligomers were prepared at a concentration of 400 µM in a solution of 50 mM HEPES buffer, 50 mM NaCl, 0.05% Tween-80, pH 8.0. Stock solution of NEP 24.11 was prepared at a concentration of 100 µg mL^−1 in water. Stability of oligomers to NEP 24.11 was assessed by conducting protease reaction in a 96-well plates at 20 °C. […] Each compound was also incubated in the absence of the enzyme (12 µL of HEPES buffer and 38 µL of oligomer). […] A portion of the quenched reaction solution was analysed by HPLC. The time course of peptide degradation was determined by integrating the area of each peak in a series of HPLC traces.

[5] = fasted C57BL/6J mice, 200 μg kg−1 (50 nmol kg−1) i.v., glucose 2 g kg−1 i.p., n = 6
[6] = read-out: Top (best-fit value), variable slope four-parameter fit, unconstrained, 14: experiment 1

Row | SMILES | In vivo activity (indicator) (normal mice (C57BL/6J)) | time after dosing for which the blood glucose decrease is preserved (normal mice (C57BL/6J)) [h] | effect on blood glucose concentration (normal mice (C57BL/6J)) | activity in IPGTT 2 h after dosing [1, 5] | EC50 (mouse GLP-1 receptor [2]) [nM] | Emax (mouse GLP-1 receptor [2]; [6]) [%] | LogEC50 (best-fit value) (mouse GLP-1 receptor [3]) | Potency (%), percentage of potency compare to GLP-1-G^2 (mouse GLP-1 receptor [3]) [%] | remaining at 1 h, 5 µM (in vitro) [%] | half-life (in vitro; pH 7.4) [min] | remaining at 20 min, 5 µM (in vitro) [%] | further results
1 | CC[C@H](C)[C@H](NC(=O)[C@H](Cc1ccccc1)NC(=O)NC[C@H](C)NC(=O)NC[C@H](C)NC(=O)NC[C@H](C)NC(=O)NC[C@H](C)NC(=O)NC[C@H](CCC(=O)O)NC(=O)NC[C@H](Cc1ccc(O)cc1)NC(=O)[C@H](Cc1ccc(O)cc1)NC(=O)[C@H](CO)NC(=O)[C@H](CO)NC(=O)[C@@H](NC(=O)[C@H](CC(=O)O)NC(=O)[C@H](CO)NC(=O)[C@@H](NC(=O)[C@H](Cc1ccccc1)NC(=O)[C@@H](NC(=O)CNC(=O)[C@H](CCC(=O)O)NC(=O)CNC(=O)[C@@H](N)Cc1c[nH]cn1)[C@@H](C)O)[C@@H](C)O)C(C)C)C(=O)N[C@@H](C)C(=O)N[C@@H](Cc1c[nH]c2ccccc12)C(=O)N[C@@H](CC(C)C)C(=O)N[C@H](C(=O)N[C@@H](CCCCN)C(=O)NCC(=O)N[C@@H](CCCNC(=N)N)C(=O)NCC(N)=O)C(C)C [compound 23, GG2[Y^uE^uA^uA^uA^uA^u]^14-21] (I: H-HGEGTFTSDVSSY / II: FIAWLVKGRG-NH2; linker I:C-II:N via X2) | +++ | 4 | showed an improved efficacy compare to the native peptide 1 | good control of the blood glucose concentration during the IPGTT | 3.4 | 100 | -8.466 | 7 | 24.8 | – | – | half-life at 5 µM (in vitro; pH 7.4): 39 min
2 | CC[C@H](C)[C@H](NC(=O)[C@H](Cc1ccccc1)NC(=O)NC[C@H](C)NC(=O)NC[C@H](C)NC(=O)NC[C@H](C)NC(=O)[C@H](CCC(N)=O)NC(=O)CNC(=O)[C@H](CCC(=O)O)NC(=O)[C@H](CC(C)C)NC(=O)[C@H](Cc1ccc(O)cc1)NC(=O)[C@H](CO)NC(=O)[C@H](CO)NC(=O)[C@@H](NC(=O)[C@H](CC(=O)O)NC(=O)[C@H](CO)NC(=O)[C@@H](NC(=O)[C@H](Cc1ccccc1)NC(=O)[C@@H](NC(=O)CNC(=O)[C@H](CCC(=O)O)NC(=O)CNC(=O)[C@@H](N)Cc1c[nH]cn1)[C@@H](C)O)[C@@H](C)O)C(C)C)C(=O)N[C@@H](C)C(=O)N[C@@H](Cc1c[nH]c2ccccc12)C(=O)N[C@@H](CC(C)C)C(=O)N[C@H](C(=O)N[C@@H](CCCCN)C(=O)NCC(=O)N[C@@H](CCCNC(=N)N)C(=O)NCC(N)=O)C(C)C [compound 14, GG2[A^uA^uA^u]^18-21] (I: H-HGEGTFTSDVSSYLEGQ / II: FIAWLVKGRG-NH2; linker I:C-II:N via X1) | +++ | 4 | showed an improved efficacy compare to the native peptide 1 | good control of the blood glucose concentration during the IPGTT | 4.1 | 103 | – | 6 | 30.5 | 38 | 66.9 | AUC ([1]; mean of n = 4, 2018-03-08): 16833 mg·min/dL; AUC ([1]; single animal, 1st of group): 18150 mg·min/dL; AUC ([1]; single animal, 2nd of group): 13233 mg·min/dL; AUC ([1]; single animal, 3rd of group): 18503 mg·min/dL; AUC ([1]; single animal, 4th of group): 17445 mg·min/dL; activity in IPGTT 4 h after dosing ([1]; fasted C57BL/6J mice, 200 μg kg−1 (50 nmol kg−1) i.v., glucose 2 g kg−1 i.p., n = 3): still active after 6 h of the treatment; activity in IPGTT 5 min after dosing ([1]; fasted C57BL/6J mice, 200 μg kg−1 (50 nmol kg−1) i.v., glucose 2 g kg−1 i.p., n = 4): both analogues were active; activity in IPGTT 30 min after dosing [1, 5]: demonstrated full activity; Emax (mouse GLP-1 receptor [2]; read-out: Top (best-fit value), fit with BOTTOM = 0%, 14: experiment 1): 116%; Emax (mouse GLP-1 receptor [2]; read-out: Top (best-fit value), fit with BOTTOM = 0%, 14 experiment 2): 117%; Emax (mouse GLP-1 receptor [2]; read-out: Top (best-fit value), fit with BOTTOM = 0%, 14 experiment 3): 100%; Emax (mouse GLP-1 receptor [2]; read-out: Top (best-fit value), fit with BOTTOM = 0%, 14 experiment 4): 116%; Emax (mouse GLP-1 receptor [2]; read-out: Top (best-fit value), variable slope four-parameter fit, unconstrained, 14 experiment 2): 116%; Emax (mouse GLP-1 receptor [2]; read-out: Top (best-fit value), variable slope four-parameter fit, unconstrained, 14 experiment 3): 99.8%; Emax (mouse GLP-1 receptor [2]; read-out: Top (best-fit value), variable slope four-parameter fit, unconstrained, 14 experiment 4): 119%
3 | CC[C@H](C)[C@H](NC(=O)[C@H](Cc1ccccc1)NC(=O)[C@H](CCC(=O)O)NC(=O)[C@H](CCCCN)NC(=O)[C@H](C)NC(=O)[C@H](C)NC(=O)[C@H](CCC(N)=O)NC(=O)CNC(=O)[C@H](CCC(=O)O)NC(=O)[C@H](CC(C)C)NC(=O)[C@H](Cc1ccc(O)cc1)NC(=O)NC[C@H](C)NC(=O)NC[C@H](C)NC(=O)N[C@@H](CNC(=O)[C@H](CO)NC(=O)[C@@H](NC(=O)[C@H](Cc1ccccc1)NC(=O)[C@@H](NC(=O)CNC(=O)[C@H](CCC(=O)O)NC(=O)CNC(=O)[C@@H](N)Cc1c[nH]cn1)[C@@H](C)O)[C@@H](C)O)CC(=O)O)C(=O)N[C@@H](C)C(=O)N[C@@H](Cc1c[nH]c2ccccc12)C(=O)N[C@@H](CC(C)C)C(=O)N[C@H](C(=O)N[C@@H](CCCCN)C(=O)NCC(=O)N[C@@H](CCCNC(=N)N)C(=O)NCC(N)=O)C(C)C [compound 2, GG2[D^uαA^uA^u]^9-12] | – | – | showed no activity | – | 13 | 77.7 | -7.897 | 2 | 21.2 | 17 | 38 | remaining at 6 h, […] [4]: 39.2%
